Experimental data: US9975903B2, “Condensed heterocyclic compound” (Takeda Pharmaceutical Company Limited, priority 2014, dated 2018)
Counter-ions that a name gives are not always drawn.

Biological target: T1, Human recombinant enteropeptidase (Homo sapiens, UniProt P98073)
T1 construct: purchased ITSI-Biosciences LLC #REN-260
Assay: Human enteropeptidase inhibitory activity (Test Example 1)
Assay type: biochemical
Conditions: 3.3 μM test compound; inhibition rate from fluorescence intensity at 2 hours after the start of the reaction
Procedure: Human recombinant enteropeptidase (#REN-260, ITSI-Biosciences LLC) was diluted with an assay buffer (50 mM Tricine, pH 8.0, 0.01 (w/v) %, Tween 20, 10 mM CaCl2) to prepare a 24 mU/mL enzyme solution. Subsequently, 5FAM-Abu-Gly-Asp-Asp-Asp-Lys-Ile-Val-Gly-Gly-Lys(CPQ2)-Lys-Lys-NH2 (SEQ ID NO: 1, purity: 97.2%, CPC Scientific Inc.) was diluted with the assay buffer to prepare a 2.1 μM substrate solution. A test compound is dissolved in DMSO into a 1 mM solution, and the solution was diluted by 100-fold with the assay buffer to give a compound solution. To a 384-well black plate (#784076, Greiner Bio-One), 5 μL of the compound solution and 5 μL of the substrate solution were added and mixed, and 5 μL of the enzyme solution was then added to the mixture, followed by mixing to start the reaction. The fluorescence intensity was measured with a fluorescence plate reader EnVision (The Perkin-Elmer Corp.) at an excitation wavelength of 485 nm and a fluorescence wavelength of 535 nm. The same reaction as above except that the test compound was not contained was performed (test compound non-addition group). Furthermore, the same reaction as above except that the test compound and the enzyme were not contained was performed (control group). The inhibition rate was calculated using the fluorescence intensity at 2 hours after the start of the reaction by the following expression: Inhibition rate (%)=(1−((fluorescence intensity of test compound addition group)−(fluorescence intensity of control group))/((fluorescence intensity of test compound non-addition group)−(fluorescence intensity of control group)))×100

T1 sequence (P98073 whole entry): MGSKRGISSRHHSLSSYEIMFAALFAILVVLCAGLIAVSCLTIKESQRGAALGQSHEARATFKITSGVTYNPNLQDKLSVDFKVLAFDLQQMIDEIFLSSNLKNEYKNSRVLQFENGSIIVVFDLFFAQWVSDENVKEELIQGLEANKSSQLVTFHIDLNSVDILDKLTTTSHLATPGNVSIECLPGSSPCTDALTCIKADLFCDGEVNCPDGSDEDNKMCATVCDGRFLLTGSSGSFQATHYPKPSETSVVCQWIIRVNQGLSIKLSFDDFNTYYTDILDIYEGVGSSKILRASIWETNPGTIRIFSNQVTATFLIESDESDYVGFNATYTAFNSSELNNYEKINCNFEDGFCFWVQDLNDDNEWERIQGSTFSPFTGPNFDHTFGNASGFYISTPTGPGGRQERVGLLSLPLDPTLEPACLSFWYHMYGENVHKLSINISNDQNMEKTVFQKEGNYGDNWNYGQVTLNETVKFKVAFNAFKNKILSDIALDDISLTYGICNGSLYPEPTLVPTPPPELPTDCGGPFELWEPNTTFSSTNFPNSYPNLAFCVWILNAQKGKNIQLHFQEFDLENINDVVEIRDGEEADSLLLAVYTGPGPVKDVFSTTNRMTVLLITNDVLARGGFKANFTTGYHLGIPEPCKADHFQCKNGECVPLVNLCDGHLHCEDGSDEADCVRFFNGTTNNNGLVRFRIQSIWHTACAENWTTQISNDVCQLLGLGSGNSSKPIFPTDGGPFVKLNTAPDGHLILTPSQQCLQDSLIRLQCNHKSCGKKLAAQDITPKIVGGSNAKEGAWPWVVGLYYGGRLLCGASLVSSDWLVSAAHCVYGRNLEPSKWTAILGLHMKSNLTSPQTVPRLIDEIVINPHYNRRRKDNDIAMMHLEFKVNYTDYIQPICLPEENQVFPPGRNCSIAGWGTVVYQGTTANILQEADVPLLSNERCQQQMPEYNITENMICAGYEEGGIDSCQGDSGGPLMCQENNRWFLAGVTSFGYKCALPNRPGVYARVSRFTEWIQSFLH

| 3.3 μM Inhibition | Compound |
| --- | --- |
| 100% | 4-((((10- carbamimidamido- 13-oxo-6,7,8,13- tetrahydro- dibenzo[b,f] [1,4]dioxecin-4- yl)carbonyl) carboxymethyl) amino)methyl) thiophene-2- carboxylic acid [Example 125] |

Same assay, conditions: 3.3 μM test compound; inhibition rate from fluorescence intensity at 2 hours after the start of the reaction; read-out: 3.3 μM Inhibition

| inhibition at 3.3 µM | Compound |
| --- | --- |
| 101% | N=C(N)Nc1ccc2c(c1)CCCOc1c(cccc1C1=NO[C@@](CC(=O)O)(C(=O)O)C1)OC2=O (stereo in doubt) [Example 22, 3-(10-Carbamimidamido-13-oxo-6,7,8,13-tetrahydrodibenzo[b,f][1,4]dioxecin-4-yl)-5-(carboxymethyl)-4,5-dihydro-1,2-oxazole-5-carboxylic acid] |
| 100% | N=C(N)Nc1ccc2c(c1)CCCOc1cc(C(=O)N[C@H](CC(=O)O)C(=O)O)ccc1OC2=O (stereo in doubt) [Example 45, N-((10-carbamimidamido-13-oxo-6,7,8,13-tetrahydro-dibenzo[b,f] [1,4]dioxecin-3-yl)carbonyl)aspartic acid] |
| 101% | N=C(N)Nc1ccc2c(c1)CCCOc1c(cccc1C(=O)N[C@@H](CC(=O)O)C(=O)O)OC2=O [Example 1, N-((10-Carbamimidamido-13-oxo-6,7,8,13-tetrahydrodibenzo[b,f][1,4]dioxecin-4-yl)carbonyl)-L-aspartic acid] |
| 101% | N=C(N)Nc1ccc2c(c1)CCCOc1c(cccc1C(=O)N[C@H](CC(=O)O)C(=O)O)OC2=O [Example 2, N-((10-Carbamimidamido-13-oxo-6,7,8,13-tetrahydrodibenzo[b,f][1,4]dioxecin-4-yl)carbonyl)-D-aspartic acid] |
| 101% | N=C(N)Nc1ccc2c(c1)CCCOc1c(cccc1C(=O)Nc1ccc(S(=O)(=O)O)cc1)OC2=O [Example 5, N-(((10-carbamimidamido-13-oxo-6,7,8,13-tetrahydro-dibenzo[b,f] [1,4]dioxecin-4-yl)carbonyl)amino) benzenesulfonic acid] |
| 101% | N=C(N)Nc1ccc2c(c1)CCCOc1c(cccc1C(=O)N[C@@H](CS(=O)(=O)O)C(=O)O)OC2=O [Example 6, N-((10-Carbamimidamido-13-oxo-6,7,8,13-tetrahydrodibenzo[b,f][1,4]dioxecin-4-yl)carbonyl)-3-sulfo-L-alanine] |
| 102% | COC(=O)[C@H](CS(=O)(=O)O)NC(=O)c1cccc2c1OCCCc1cc(NC(=N)N)ccc1C(=O)O2 [Example 7, 10-carbamimidamido-4-(((2R)-1-methoxy-1-oxo-3-sulfopropan-2-yl)carbamoyl)-13-oxo-6,7,8,13-tetrahydro-dibenzo[b,f] [1,4]dioxecine] |
| 100% | N=C(N)NCCC[C@H](NC(=O)c1cccc2c1OCCCc1cc(NC(=N)N)ccc1C(=O)O2)C(=O)O [Example 8, N^~2^~-((10-carbamimidamido-13-oxo-6,7,8,13-tetrahydro-dibenzo[b,f] [1,4]dioxecin-4-yl)carbonyl)-L-arginine] |
| 101% | N=C(N)Nc1ccc2c(c1)CCCOc1c(cccc1C(=O)N(CCC(=O)O)CCC(=O)O)OC2=O [Example 9, 3,3′-(((10-carbamimidamido-13-oxo-6,7,8,13-tetrahydro-dibenzo[b,f] [1,4]dioxecin-4-yl)carbonyl)imino) dipropanoic acid (non-preferred name)] |
| 101% | N=C(N)Nc1ccc2c(c1)CCCOc1c(cccc1C(=O)N[C@@H](Cc1ccc(O)cc1)C(=O)O)OC2=O [Example 10, N-((10-carbamimidamido-13-oxo-6,7,8,13-tetrahydro-dibenzo[b,f] [1,4]dioxecin-4-yl)carbonyl)-L-tyrosine] |
| 101% | N=C(N)Nc1ccc2c(c1)CCCOc1c(cccc1C(=O)NC(CC(=O)O)CC(=O)O)OC2=O [Example 11, 3-(((10-Carbamimidamido-13-oxo-6,7,8,13-tetrahydrodibenzo[b,f][1,4]dioxecin-4-yl)carbonyl)amino)pentanedioic acid] |
| 101% | N=C(N)Nc1ccc2c(c1)CCCOc1c(cccc1C(=O)N1CCC[C@H]1C(=O)O)OC2=O [Example 12, 1-((10-carbamimidamido-13-oxo-6,7,8,13-tetrahydro-dibenzo[b,f] [1,4]dioxecin-4-yl)carbonyl)-L-proline] |
| 101% | N=C(N)Nc1ccc2c(c1)CCOc1c(cccc1C(=O)N[C@@H](CC(=O)O)C(=O)O)OC2=O [Example 13, N-((9-Carbamimidamido-6-oxo-11,12-dihydro-6H-dibenzo[b,f][1,4]dioxonin-1-yl)carbonyl)-L-aspartic acid trifluoroacetate] |
| 101% | N=C(N)Nc1ccc2c(c1)CCCOc1c(cccc1C(=O)N(CC(=O)O)CC(=O)O)OC2=O [Example 14, 2,2′-(((10-carbamimidamido-13-oxo-6,7,8,13-tetrahydro-dibenzo[b,f] [1,4]dioxecin-4-yl)carbonyl)imino) diacetic acid] |
| 101% | N=C(N)Nc1ccc2c(c1)CCOc1c(cccc1C(=O)NCCS(=O)(=O)O)OC2=O [Example 15, 2-(((9-carbamimidamido-6-oxo-11,12-dihydro-6H-dibenzo[b,f][1,4]dioxonin-1-yl)carbonyl)amino) ethanesulfonic acid] |
| 101% | N=C(N)Nc1ccc2c(c1)CCCOc1c(cccc1C(=O)N[C@@H](CCC(N)=O)C(=O)O)OC2=O [Example 16, N^~2^~-((10-carbamimidamido-13-oxo-6,7,8,13-tetrahydro-dibenzo[b,f] [1,4]dioxecin-4-yl)carbonyl)-L-glutamine] |
| 100% | N=C(N)Nc1ccc2c(c1)CCCOc1c(cccc1C(=O)N[C@@H](CC(N)=O)C(=O)O)OC2=O [Example 17, N^~2^~-((10-carbamimidamido-13-oxo-6,7,8,13-tetrahydro-dibenzo[b,f] [1,4]dioxecin-4-yl)carbonyl)-L-asparagine] |
| 101% | N=C(N)Nc1ccc2c(c1)CCCOc1c(cccc1C(=O)N[C@@H](CCC(=O)O)C(=O)O)OC2=O [Example 18, N-((10-Carbamimidamido-13-oxo-6,7,8,13-tetrahydrodibenzo[b,f][1,4]dioxecin-4-yl)carbonyl)-L-glutamic acid] |
| 99% | N=C(N)Nc1ccc2c(c1)COc1c(cccc1C(=O)N[C@@H](CC(=O)O)C(=O)O)OC2=O [Example 19, N-((9-Carbamimidamido-6-oxo-6,11-dihydrodibenzo[b,f][1,4]dioxocin-1-yl)carbonyl)-L-aspartic acid trifluoroacetate] |
| 102% | C[C@@H]1CCc2cc(NC(=N)N)ccc2C(=O)Oc2cccc(C(=O)N[C@@H](CC(=O)O)C(=O)O)c2C1 [Example 20, N-((3-carbamimidamido-7-methyl-14-oxo-6,7,8,14-tetrahydro-6H-dibenzo[b,h]oxecin-9-yl)carbonyl)-L-aspartic acid] |
| 102% | CC1CCCc2cc(NC(=N)N)ccc2C(=O)Oc2cccc(C(=O)N[C@@H](CC(=O)O)C(=O)O)c21 (stereo partly drawn) [Example 21, N-((3-carbamimidamido-8-methyl-14-oxo-5,7,8,14-tetrahydro-6H-dibenzo[b,h]oxecin-9-yl)carbonyl)-L-aspartic acid] |
| 102% | N=C(N)Nc1ccc2c(c1)CCCOc1c(cccc1C1=NOC(CC(=O)O)(C(=O)O)C1)OC2=O (stereo not shown) [Example 23, 3-(10-Carbamimidamido-13-oxo-6,7,8,13-tetrahydrodibenzo[b,f][1,4]dioxecin-4-yl)-5-(carboxymethyl)-4,5-dihydro-1,2-oxazole-5-carboxylic acid] |
| 102% | N=C(N)Nc1ccc2c(c1)CCCOc1c(cccc1C(=O)NCP(=O)(O)O)OC2=O [Example 25, ((((10-carbamimidamido-13-oxo-6,7,8,13-tetrahydro-dibenzo[b,f] [1,4]dioxecin-4-yl)carbonyl)amino)methyl)phosphonic acid] |
| 45% | N=C(N)Nc1ccc2c(c1)CCCCc1sc(C(=O)N[C@@H](CC(=O)O)C(=O)O)cc1OC2=O [Example 26, N-((9-Carbamimidamido-12-oxo-5,6,7,12-tetrahydro-4H-thieno[3,2-c][2]benzooxecin-2-yl)carbonyl)-L-aspartic acid] |
| 102% | N=C(N)Nc1ccc2c(c1)CCCOc1c(cccc1C(=O)NCS(=O)(=O)O)OC2=O [Example 27, (((10-carbamimidamido-13-oxo-6,7,8,13-tetrahydro-dibenzo[b,f] [1,4]dioxecin-4-yl)carbonyl)amino) methanesulfonic acid] |
| 102% | N=C(N)Nc1ccc2c(c1)CCCOc1c(cccc1C(=O)NCCS(=O)(=O)O)OC2=O [Example 28, 2-(((10-carbamimidamido-13-oxo-6,7,8,13-tetrahydro-dibenzo[b,f] [1,4]dioxecin-4-yl)carbonyl)amino) ethanesulfonic acid] |
| 101% | N=C(N)Nc1ccc2c(c1)CCCOc1c(cccc1C(=O)O)OC2=O [Example 29, 10-carbamimidamido-13-oxo-6,7,8,13-tetrahydro-dibenzo[b,f] [1,4]dioxecine-4-carboxylic acid] |
